SMILES strings stand for the structures.

human TLR7, sequence (Q9NYK1 27-1049): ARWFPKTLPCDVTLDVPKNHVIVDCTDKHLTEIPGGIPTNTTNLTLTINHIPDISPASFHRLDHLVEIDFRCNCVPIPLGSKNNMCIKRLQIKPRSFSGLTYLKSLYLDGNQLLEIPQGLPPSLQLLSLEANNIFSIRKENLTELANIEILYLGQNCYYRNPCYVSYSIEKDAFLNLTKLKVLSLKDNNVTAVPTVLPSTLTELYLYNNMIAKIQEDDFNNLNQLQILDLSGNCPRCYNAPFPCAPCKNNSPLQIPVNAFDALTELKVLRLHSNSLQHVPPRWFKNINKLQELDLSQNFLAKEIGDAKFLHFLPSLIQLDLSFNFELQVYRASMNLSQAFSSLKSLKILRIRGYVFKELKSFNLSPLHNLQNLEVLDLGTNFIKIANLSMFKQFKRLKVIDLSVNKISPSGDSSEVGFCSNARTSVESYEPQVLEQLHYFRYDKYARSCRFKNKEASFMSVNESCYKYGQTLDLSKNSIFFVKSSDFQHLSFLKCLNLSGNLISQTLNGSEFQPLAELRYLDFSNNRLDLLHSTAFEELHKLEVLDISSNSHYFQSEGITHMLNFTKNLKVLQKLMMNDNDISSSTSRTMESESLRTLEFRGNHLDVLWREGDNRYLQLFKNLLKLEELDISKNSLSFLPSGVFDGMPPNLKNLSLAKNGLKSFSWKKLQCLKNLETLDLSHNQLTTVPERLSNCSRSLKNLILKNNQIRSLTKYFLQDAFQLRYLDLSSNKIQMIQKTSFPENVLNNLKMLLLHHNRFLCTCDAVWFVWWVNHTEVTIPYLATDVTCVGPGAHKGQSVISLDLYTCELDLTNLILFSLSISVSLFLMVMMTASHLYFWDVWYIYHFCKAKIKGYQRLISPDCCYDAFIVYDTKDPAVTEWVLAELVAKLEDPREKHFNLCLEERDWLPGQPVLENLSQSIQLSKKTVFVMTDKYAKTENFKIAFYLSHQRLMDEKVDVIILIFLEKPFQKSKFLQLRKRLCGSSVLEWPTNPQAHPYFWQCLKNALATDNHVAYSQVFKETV

The first assay addresses human TLR7 (Homo sapiens (Human), UniProt Q9NYK1). Put plainly: Test for evaluating the inhibition of the activation of human TLR7 (SEAP reporter, TLR7/NF-κB/SEAPorter HEK293 cell). The assay is classed as cell-based. The following applies: R-848 200 nmol/L, SEAP activity, result in words. Summed up: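 The readout is secreted alkaline phosphatase under NF-κB response-element control in TLR7/NF-κB/SEAPorter HEK293 cells, which stably express full-length human TLR7. Cells were plated at 5×10^4 per well and grown overnight at 37° C, 5% CO2, in DMEM/10% FBS/blasticidin.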
Take `CCOc1nc(C)c2nc(-c3cncc(F)c3)n(Cc3ccc(C4CN5CCC4CC5)cc3OC)c2n1` (stereo not shown) [Example 372, 9-[4-(1-azabicyclo[2.2.2]oct-3-yl)-2-methoxybenzyl]-2-ethoxy-8-(5-fluoropyridin-3-yl)-6-methyl-9H-purine]: the “inhibitory effect against TLR7 in the test for evaluating inhibition of the activation of TLR7” value (from here on “inhibitory effect against TLR7”) was “potent inhibitory effect against TLR7”.

`CCOc1nc(C)c2nc(-c3cncc(F)c3)n(Cc3ccc(C4CN5CCC4CC5)cc3OCC)c2n1` (stereo not shown) [Example 376]: the “inhibitory effect against TLR7” value is on record as “potent inhibitory effect against TLR7”. Turning to `COc1nc(C)c2nc(-c3cncc(F)c3)n(Cc3ccc(C4CN5CCC4CC5)c(F)c3)c2n1` (stereo not shown) [Example 377, 9-[4-(1-azabicyclo[2.2.2]oct-3-yl)-3-fluorobenzyl]-8-(5-fluoropyridin-3-yl)-2-methoxy-6-methyl-9H-purine], the “inhibitory effect against TLR7” value was “potent inhibitory effect against TLR7”. Turning to `CCOc1nc(C)c2nc(-c3cncc(F)c3)n(Cc3cnc(C4CN5CCC4CC5)c(F)c3)c2n1` (stereo not shown) [Example 383], the “inhibitory effect against TLR7” value is “potent inhibitory effect against TLR7”. Turning to `COc1nc(C)c2nc(-c3cncc(F)c3)n(Cc3cccc(C4CN5CCC4CC5)c3)c2n1` (stereo not shown) [Example 386, 9-[3-(1-azabicyclo[2.2.2]oct-3-yl)benzyl]-8-(5-fluoropyridin-3-yl)-2-methoxy-6-methyl-9H-purine], the “inhibitory effect against TLR7” value is reported as “potent inhibitory effect against TLR7”. Still for that read-out and setting: the result for `COc1nc(C)c2nc(-c3cncc(F)c3)n(Cc3ccc(C4CN5CCC4CC5)cc3F)c2n1` (stereo not shown) [Example 392, 9-[4-(1-azabicyclo[2.2.2]oct-3-yl)-2-fluorobenzyl]-8-(5-fluoropyridin-3-yl)-2-methoxy-6-methyl-9H-purine] reads “potent inhibitory effect against TLR7”; that for `COc1nc(C)c2nc(-c3cncc(F)c3)n(Cc3ccc(C4CN5CCC4CC5)cc3F)c2n1` (stereo not shown) [Example 393, 9-[4-(1-azabicyclo[2.2.2]oct-3-yl)-2-fluorobenzyl]-8-(5-fluoropyridin-3-yl)-2-methoxy-6-methyl-9H-purine], “potent inhibitory effect against TLR7”; that for `COc1nc(C)c2nc(-c3cncc(F)c3)n(Cc3ccc(OC4CCN(C)CC4)cc3F)c2n1` [Example 411, 9-{2-fluoro-4-[(1-methylpiperidin-4-yl)oxy]benzyl}-8-(5-fluoropyridin-3-yl)-2-methoxy-6-methyl-9H-purine], “potent inhibitory effect against TLR7”.

The assay is the same for the next values; noted with them: R-848 200 nmol/L, SEAP reporter.
The IC50 is the point on the concentration scale where inhibition reaches its midpoint. `CCOc1nc(C)c2nc(-c3cncc(F)c3)n(Cc3ccc(C4=CN5CCC4CC5)cc3OC)c2n1` [Example 354]: the IC50 was 36 nM. The same measure, in the same setting: the result for `CCOc1nc(C)c2nc(-c3cncc(F)c3)n(Cc3cnc(C4=CN5CCC4CC5)cc3OC)c2n1` [Example 355] reads 1600 nM.

The molecule `CCOc1nc(C)c2nc(-c3cncc(F)c3)n(Cc3ccc(C4=CN5CCC4CC5)cc3OCC)c2n1` [Example 356] displayed an IC50 of 463 nM.

Molecule `COc1nc(C)c2nc(-c3cncc(F)c3)n(Cc3ccc(C4=CN5CCC4CC5)c(F)c3)c2n1` [Example 357] registered an IC50 of 62 nM.

Consider `Cc1nc(O)nc2c1nc(-c1cncc(F)c1)n2Cc1ccc(C2=CN3CCC2CC3)c(F)c1` [Example 358], for which it took 18 nM to reach half-maximal inhibition (IC50). For `CCOc1nc(C)c2nc(-c3cncc(F)c3)n(Cc3ncc(C4=CN5CCC4CC5)cc3F)c2n1` [Example 359], half-maximal inhibition (IC50) was put at 855 nM. Still for that read-out and setting: the value for `CCOc1nc(C)c2nc(-c3cncc(F)c3)n(Cc3ccc(C4=CN5CCC4CC5)nc3C(F)(F)F)c2n1` [Example 360] was 1720 nM; that for `CCOc1nc(C)c2nc(-c3cncc(F)c3)n(Cc3ccc(C4=CN5CCC4CC5)nc3C#N)c2n1` [Example 361] was 582 nM; that for `CCOc1nc(C)c2nc(-c3cncc(F)c3)n(Cc3ccc(C4=CN5CCC4CC5)cc3C#N)c2n1` [Example 363] was 592 nM. For the molecule `COc1nc(C)c2nc(-c3cncc(F)c3)n(Cc3cccc(C4=CN5CCC4CC5)c3)c2n1` [Example 364], the IC50 turned out to be 11 nM. As for `CCOc1nc(C)c2nc(-c3cncc(F)c3)n(Cc3cnc(CC4CCN(C(=O)OC(C)(C)C)CC4)cc3OC)c2n1` [Example 369], the IC50 worked out at 1690 nM. On the same count and under the same terms, the result for `CCOc1nc(C)c2nc(-c3cncc(F)c3)n(Cc3ccc(C4CN5CCC4CC5)cn3)c2n1` (stereo not shown) [Example 370, 9-{[5-(1-Azabicyclo[2.2.2]oct-3-yl)pyridin-2-yl]methyl}-2-ethoxy-8-(5-fluoropyridin-3-yl)-6-methyl-9H-purine] reads 117 nM. The molecule `COc1nc(C)c2nc(-c3cncc(F)c3)n(Cc3ccc(C4CN5CCC4CC5)cn3)c2n1` (stereo not shown) [Example 371] registered an IC50 of 264 nM. Same read-out and setting: the value for `CCOc1nc(C)c2nc(-c3cncc(F)c3)n(Cc3ccc(C4CN5CCC4CC5)cc3OC)c2n1` (stereo not shown) [Example 372, 9-[4-(1-azabicyclo[2.2.2]oct-3-yl)-2-methoxybenzyl]-2-ethoxy-8-(5-fluoropyridin-3-yl)-6-methyl-9H-purine] was 11 nM; that for `CCOc1nc(C)c2nc(-c3cncc(F)c3)n(Cc3ccccc3OC)c2n1` [Example 373] was 209 nM; that for `CCOc1nc(C)c2nc(-c3cncc(F)c3)n(Cc3cnc(C4CN5CCC4CC5)cc3OC)c2n1` (stereo not shown) [Example 374] was 1630 nM. On the same count and under the same terms, the value for `CCOc1nc(C)c2nc(-c3cncc(F)c3)n(Cc3cnc(C4CCN(C)CC4)cc3OC)c2n1` [Example 375] was 199 nM; that for `CCOc1nc(C)c2nc(-c3cncc(F)c3)n(Cc3ccc(C4CN5CCC4CC5)cc3OCC)c2n1` (stereo not shown) [Example 376] was 84 nM; that for `COc1nc(C)c2nc(-c3cncc(F)c3)n(Cc3ccc(C4CN5CCC4CC5)c(F)c3)c2n1` (stereo not shown) [Example 377, 9-[4-(1-azabicyclo[2.2.2]oct-3-yl)-3-fluorobenzyl]-8-(5-fluoropyridin-3-yl)-2-methoxy-6-methyl-9H-purine] was 7 nM.

Consider `CCOc1nc(C)c2nc(-c3cncc(F)c3)n(Cc3ncc(C4CN5CCC4CC5)cc3F)c2n1` (stereo not shown) [Example 379], for which the IC50 was 506 nM. With `COc1nc(C)c2nc(-c3cccnc3)n(Cc3ccc(C4CN5CCC4CC5)c(F)c3)c2n1` (stereo not shown) [Example 380], the IC50 was determined as 225 nM. Consider `CCOc1nc(C)c2nc(-c3cncc(F)c3)n(Cc3ccc(C4CN5CCC4CC5)nc3C(F)(F)F)c2n1` (stereo not shown) [Example 381], for which half-maximal inhibition (IC50) required 1390 nM. Consider `CCOc1nc(C)c2nc(-c3cncc(F)c3)n(Cc3ccc(C4CN5CCC4CC5)nc3C#N)c2n1` (stereo not shown) [Example 382], for which it took 575 nM to reach half-maximal inhibition (IC50). On the same count and under the same terms, the result for `CCOc1nc(C)c2nc(-c3cncc(F)c3)n(Cc3cnc(C4CN5CCC4CC5)c(F)c3)c2n1` (stereo not shown) [Example 383] reads 83 nM; that for `CCOc1nc(C)c2nc(-c3cncc(F)c3)n(Cc3ccc(C4CN5CCC4CC5)cc3C#N)c2n1` (stereo not shown) [Example 384], 270 nM. `COc1nc(C)c2nc(-c3cncc(F)c3)n(Cc3ccc(C4CCN(C(=O)OC(C)(C)C)CC4)cc3F)c2n1` [Example 385] returned an IC50 of 94 nM. Turning to `COc1nc(C)c2nc(-c3cncc(F)c3)n(Cc3cccc(C4CN5CCC4CC5)c3)c2n1` (stereo not shown) [Example 386, 9-[3-(1-azabicyclo[2.2.2]oct-3-yl)benzyl]-8-(5-fluoropyridin-3-yl)-2-methoxy-6-methyl-9H-purine], the half-maximal inhibitory concentration (IC50) was 13 nM. Same read-out and setting: the value for `Cc1nc(O)nc2c1nc(-c1cncc(F)c1)n2Cc1ccc(C2CN3CCC2CC3)cc1` (stereo not shown) [Example 388, 9-[4-(1-Azabicyclo[2.2.2]oct-3-yl)benzyl]-8-(5-fluoropyridin-3-yl)-6-methyl-9H-purin-2-ol] was 1350 nM.

As for `Cc1nc(O)nc2c1nc(-c1cncc(F)c1)n2Cc1ccc(C2CN3CCC2CC3)cc1F` (stereo not shown) [Example 389], the IC50 was 2040 nM. `COc1nc(C)c2nc(-c3cncc(F)c3)n(Cc3ccc(O)cc3F)c2n1` [Example 404, 3-Fluoro-4-{[8-(5-fluoropyridin-3-yl)-2-methoxy-6-methyl-9H-purin-9-yl]methyl}phenol] returned an IC50 of 846 nM. Molecule `COc1ccc(Cn2c(-c3cncc(F)c3)nc3c(C)nc(OC)nc32)c(F)c1` [Example 405, 9-(2-fluoro-4-methoxybenzyl)-8-(5-fluoropyridin-3-yl)-2-methoxy-6-methyl-9H-purine] showed an IC50 of 3410 nM. `COc1nc(C)c2nc(-c3cncc(F)c3)n(Cc3ccc(OC4CCN(C)CC4)cc3F)c2n1` [Example 411, 9-{2-fluoro-4-[(1-methylpiperidin-4-yl)oxy]benzyl}-8-(5-fluoropyridin-3-yl)-2-methoxy-6-methyl-9H-purine]: the IC50 was found to be 26 nM.

These data come from patent US10703755B2, “Substituted purine derivative” (SUMITOMO DAINIPPON PHARMA CO., LTD., priority 2016, dated 2020).
